Calls of active or inactive are those of the source.
Legend:
[1] = A cytotoxicity screen of small molecule inhibitors of the PhoP region in Salmonella typhi identified in the primary screen. [Related pubchem assays: 1850, 1864, 1985 ]; assay type: functional
[2] = molecular target: Peroxisome proliferator-activated receptor gamma/Nuclear receptor coactivator 3 (Homo sapiens, UniProt P37231); assay type: functional;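 note: agonist potency for raising coactivator recruitment to the receptor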
[3] = molecular target: Peroxisome proliferator-activated receptor gamma/Nuclear receptor coactivator 2 (Homo sapiens, UniProt P37231); assay type: functional;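 note: agonist potency for raising coactivator recruitment to the receptor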
[4] = molecular target: Peroxisome proliferator-activated receptor gamma/Nuclear receptor coactivator 1 (Homo sapiens, UniProt P37231); assay type: functional;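 note: agonist potency as compounds enhance coactivator SRC-1 recruitment to PPARgamma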
[5] = loss of viability in HepG2 cells – cell-based, CellTiter-Glo, cherry-picked, cytotoxicity control for Shn3 inhibitor project, dose response (AID 624134); assay type: functional
[6] = reduction of Shn3 3'UTR-driven luciferase in osteoblasts – cell-based, Clone20 osteoblasts, firefly luciferase, cherry-picked, dose response (AID 624132); assay type: functional;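 note: firefly luciferase luminescence from reporter carrying the Shn3 3'UTR in osteoblasts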
[7] = non-specific 3'UTR reporter inhibition in Clone20-Shn3RL – cell-based, Renilla luciferase, cherry-picked, counter-screen for Shn3 inhibitor project, dose response (AID 624133); assay type: functional
[8] = molecular target: Cytochrome P450 2C19 (Homo sapiens, UniProt P33261); experiment: Cytochrome panel assay with activity outcomes. Panel member name: p450-cyp2c19 Compounds with AC50 equal or less than 10 uM are considered active; assay type: functional; details: read-out: AC50
[9] = molecular target: Cytochrome P450 3A4 (Homo sapiens, UniProt P08684);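 note: CYP3A4 tested as one member of a cytochrome P450 panel screen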
[10] = molecular target: T1, Cytochrome P450 1A2 (Homo sapiens, UniProt P05177);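 note: PubChem cytochrome P450 panel assay, CYP1A2 panel member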
T1 sequence (P05177 whole entry): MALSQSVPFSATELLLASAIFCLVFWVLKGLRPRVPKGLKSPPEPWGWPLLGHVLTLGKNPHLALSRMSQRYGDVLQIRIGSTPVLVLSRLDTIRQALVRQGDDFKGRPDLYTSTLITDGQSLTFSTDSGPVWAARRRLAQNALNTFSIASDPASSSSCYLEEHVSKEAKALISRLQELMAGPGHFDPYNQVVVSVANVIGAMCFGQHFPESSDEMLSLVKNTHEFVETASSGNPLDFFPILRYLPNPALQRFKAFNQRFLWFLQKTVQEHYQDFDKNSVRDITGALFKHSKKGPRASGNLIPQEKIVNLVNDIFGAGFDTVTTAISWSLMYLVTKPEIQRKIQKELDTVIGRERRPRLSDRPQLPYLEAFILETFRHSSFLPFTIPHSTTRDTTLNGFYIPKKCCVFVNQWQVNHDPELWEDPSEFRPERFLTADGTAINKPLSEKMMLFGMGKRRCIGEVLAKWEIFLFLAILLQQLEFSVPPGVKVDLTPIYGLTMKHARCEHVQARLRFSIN

[11] = molecular target: T2, Polyadenylate-binding protein 1 (Homo sapiens, UniProt P11940); experiment: MLLE domain peptide-binding blockers, IC50 – biochemical, fluorescence polarization, FITC-PAM2 peptide, dose response (AID 602259); assay type: functional; details: read-out: IC50_Mean
[12] = molecular target: T2, Polyadenylate-binding protein 1; experiment: MLLE binding blockers, Cy5 peptide tracer – biochemical, fluorescence polarization, Cy5-PAM2 peptide, secondary, miRNA deadenylation inhibitor project, dose response (AID 602260); assay type: functional; details: read-out: IC50_Mean
[13] = molecular target: T3, Heat shock factor protein 1 (Mus musculus, UniProt P38532); experiment: decrease of HSF1-responsive luciferase luminescence – cell-based, NIH3T3, dose retest, confirmation (AID 2382); assay type: functional;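 note: NIH3T3 fibroblasts with HSF1-driven luciferase reporter stressed by proteasome inhibitor MG132; luminescence from HSF1-driven luciferase expression after 8 hours of MG132 stress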
T3 sequence (P38532 whole entry): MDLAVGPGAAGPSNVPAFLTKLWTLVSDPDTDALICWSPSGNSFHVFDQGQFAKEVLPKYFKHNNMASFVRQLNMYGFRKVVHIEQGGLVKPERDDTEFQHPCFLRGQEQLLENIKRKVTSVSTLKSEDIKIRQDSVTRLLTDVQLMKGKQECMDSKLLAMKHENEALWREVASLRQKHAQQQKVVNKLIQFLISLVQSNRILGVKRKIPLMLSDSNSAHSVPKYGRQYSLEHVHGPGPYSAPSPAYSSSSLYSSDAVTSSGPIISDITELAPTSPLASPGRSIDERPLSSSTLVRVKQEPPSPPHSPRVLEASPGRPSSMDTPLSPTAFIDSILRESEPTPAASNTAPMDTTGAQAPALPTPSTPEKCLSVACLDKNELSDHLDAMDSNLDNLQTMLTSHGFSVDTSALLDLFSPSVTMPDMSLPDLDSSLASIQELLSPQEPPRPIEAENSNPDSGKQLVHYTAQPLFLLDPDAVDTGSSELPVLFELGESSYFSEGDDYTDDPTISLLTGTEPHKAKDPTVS

[14] = molecular target: T4, RNA-binding protein pos-1 (Caenorhabditis elegans, UniProt G5EF15); experiment: disruptors of C. elegans POS-1 RNA interaction – biochemical, fluorescence polarization, dose response (AID 1964);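 note: purified POS-1 fused to maltose binding protein made in E. coli; potency of compounds blocking POS-1 binding to fluorescent RNA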
T4 sequence (G5EF15 whole entry): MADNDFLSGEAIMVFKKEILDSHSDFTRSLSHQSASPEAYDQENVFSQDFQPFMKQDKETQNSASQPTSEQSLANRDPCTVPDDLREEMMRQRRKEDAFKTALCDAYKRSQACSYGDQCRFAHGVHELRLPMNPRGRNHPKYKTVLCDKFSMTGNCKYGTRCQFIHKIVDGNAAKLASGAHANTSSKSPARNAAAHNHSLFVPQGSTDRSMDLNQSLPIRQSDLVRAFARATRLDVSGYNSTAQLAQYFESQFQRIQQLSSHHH

[15] = molecular target: T5, Endoribonuclease toxin MazF (Escherichia coli K-12, UniProt P0AE70); experiment: activation of MazEF endoribonuclease cleavage – biochemical, fluorescence, single-stranded RNA substrate, uHTS hits, dose response (AID 588481); assay type: functional
T5 sequence (P0AE70 whole entry): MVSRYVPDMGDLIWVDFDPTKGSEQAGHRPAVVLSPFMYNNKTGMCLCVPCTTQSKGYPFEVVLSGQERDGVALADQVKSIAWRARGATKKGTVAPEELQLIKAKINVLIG

[16] = molecular target: T5, Endoribonuclease toxin MazF; experiment: substrate-only fluorescence increase artefacts – biochemical, single-stranded RNase substrate, counter-screen for MazEF activator project, dose response (AID 588502); assay type: functional
[17] = molecular target: T6, Zinc finger protein mex-5 (Caenorhabditis elegans, UniProt Q9XUB2); experiment: potency of MEX-5 RNA-binding blockers – biochemical, C. elegans, fluorescence polarization, dose response (AID 1960)
T6 sequence (Q9XUB2 whole entry): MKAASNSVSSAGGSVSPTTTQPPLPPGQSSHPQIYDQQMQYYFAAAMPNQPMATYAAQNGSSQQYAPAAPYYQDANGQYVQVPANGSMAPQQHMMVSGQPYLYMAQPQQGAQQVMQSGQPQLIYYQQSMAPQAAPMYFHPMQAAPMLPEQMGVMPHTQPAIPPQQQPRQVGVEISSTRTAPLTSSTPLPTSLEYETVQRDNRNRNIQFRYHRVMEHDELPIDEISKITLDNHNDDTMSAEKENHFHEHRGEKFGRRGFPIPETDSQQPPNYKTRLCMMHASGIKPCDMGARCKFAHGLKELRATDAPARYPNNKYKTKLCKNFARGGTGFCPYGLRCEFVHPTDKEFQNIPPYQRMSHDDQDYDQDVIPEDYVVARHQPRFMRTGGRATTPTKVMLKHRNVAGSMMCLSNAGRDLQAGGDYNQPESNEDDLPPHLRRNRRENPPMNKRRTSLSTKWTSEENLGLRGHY

[18] = system: INS1; experiment: INS-1E survival protection against cytokine death – cell-based, luminescence, retest, dose response (AID 449756); assay type: functional; details: Rattus norvegicus;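 note: cell death triggered by IL-1 beta plus TNF-alpha plus IFN-gamma mixture; protective hits raise ATP signal compared with cytokine alone wells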
[19] = Luminescence Cell-Based Dose Retest to Confirm Inhibitors of Cancer Stem Cells. [Related pubchem assays (depositor defined):AID2717, AID2721]; assay type: functional; details: Homo sapiens
[20] = microbe, parasite or virus in culture; assay type: functional; details: Mycobacterium tuberculosis
[21] = viability of HCT116 lacking mutant beta-catenin – cell-based, human colon tumor, dose response (AID 1045); assay type: functional;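 note: HCT116 colon tumor cells with beta catenin knocked out; cells exposed to compound for 60 hours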
[22] = viability of PTEN-deleted HCT116 cells – cell-based, HCT116 PTEN knockout, dose response (AID 1047); assay type: functional;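 note: HCT116 colon tumor cells with PTEN knocked out; cells exposed to compound for 60 hours before readout; potency for loss of cell viability measured by luminescence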
[23] = molecular target: Induced myeloid leukemia cell differentiation protein Mcl-1 (Homo sapiens, UniProt Q07820); assay type: functional
[24] = molecular target: Eukaryotic translation initiation factor 4E (Mus musculus, UniProt P63073); experiment: blockers of eIF4G binding by eIF4E – biochemical, TR-FRET, dose response (AID 855); assay type: functional;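 note: potency for disrupting eIF4E binding to eIF4GI seen as loss of FRET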
Sequence of Eukaryotic translation initiation factor 4E (P63073 whole entry): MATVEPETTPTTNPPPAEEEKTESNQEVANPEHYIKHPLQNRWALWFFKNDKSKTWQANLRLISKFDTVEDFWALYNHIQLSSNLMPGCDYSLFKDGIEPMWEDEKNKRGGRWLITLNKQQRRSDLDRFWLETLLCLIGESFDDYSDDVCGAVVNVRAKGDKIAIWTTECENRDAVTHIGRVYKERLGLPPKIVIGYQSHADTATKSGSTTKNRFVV

Sequence of Peroxisome proliferator-activated receptor gamma/Nuclear receptor coactivator 1 (P37231 whole entry): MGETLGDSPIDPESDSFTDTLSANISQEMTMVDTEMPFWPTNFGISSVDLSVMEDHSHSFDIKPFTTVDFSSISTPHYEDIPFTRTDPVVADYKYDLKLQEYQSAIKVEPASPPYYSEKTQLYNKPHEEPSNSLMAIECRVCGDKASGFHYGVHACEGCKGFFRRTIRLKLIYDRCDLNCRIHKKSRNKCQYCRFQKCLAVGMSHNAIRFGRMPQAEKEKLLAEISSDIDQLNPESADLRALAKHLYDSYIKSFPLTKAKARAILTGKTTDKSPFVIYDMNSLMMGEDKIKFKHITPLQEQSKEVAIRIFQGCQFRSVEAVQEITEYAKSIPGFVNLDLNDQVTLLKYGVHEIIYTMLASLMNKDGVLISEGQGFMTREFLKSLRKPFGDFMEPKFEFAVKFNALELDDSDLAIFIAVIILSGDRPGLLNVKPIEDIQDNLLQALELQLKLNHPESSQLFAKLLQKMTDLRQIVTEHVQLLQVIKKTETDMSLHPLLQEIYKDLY
Sequence of Peroxisome proliferator-activated receptor gamma/Nuclear receptor coactivator 1 (Q15788 whole entry, further chain): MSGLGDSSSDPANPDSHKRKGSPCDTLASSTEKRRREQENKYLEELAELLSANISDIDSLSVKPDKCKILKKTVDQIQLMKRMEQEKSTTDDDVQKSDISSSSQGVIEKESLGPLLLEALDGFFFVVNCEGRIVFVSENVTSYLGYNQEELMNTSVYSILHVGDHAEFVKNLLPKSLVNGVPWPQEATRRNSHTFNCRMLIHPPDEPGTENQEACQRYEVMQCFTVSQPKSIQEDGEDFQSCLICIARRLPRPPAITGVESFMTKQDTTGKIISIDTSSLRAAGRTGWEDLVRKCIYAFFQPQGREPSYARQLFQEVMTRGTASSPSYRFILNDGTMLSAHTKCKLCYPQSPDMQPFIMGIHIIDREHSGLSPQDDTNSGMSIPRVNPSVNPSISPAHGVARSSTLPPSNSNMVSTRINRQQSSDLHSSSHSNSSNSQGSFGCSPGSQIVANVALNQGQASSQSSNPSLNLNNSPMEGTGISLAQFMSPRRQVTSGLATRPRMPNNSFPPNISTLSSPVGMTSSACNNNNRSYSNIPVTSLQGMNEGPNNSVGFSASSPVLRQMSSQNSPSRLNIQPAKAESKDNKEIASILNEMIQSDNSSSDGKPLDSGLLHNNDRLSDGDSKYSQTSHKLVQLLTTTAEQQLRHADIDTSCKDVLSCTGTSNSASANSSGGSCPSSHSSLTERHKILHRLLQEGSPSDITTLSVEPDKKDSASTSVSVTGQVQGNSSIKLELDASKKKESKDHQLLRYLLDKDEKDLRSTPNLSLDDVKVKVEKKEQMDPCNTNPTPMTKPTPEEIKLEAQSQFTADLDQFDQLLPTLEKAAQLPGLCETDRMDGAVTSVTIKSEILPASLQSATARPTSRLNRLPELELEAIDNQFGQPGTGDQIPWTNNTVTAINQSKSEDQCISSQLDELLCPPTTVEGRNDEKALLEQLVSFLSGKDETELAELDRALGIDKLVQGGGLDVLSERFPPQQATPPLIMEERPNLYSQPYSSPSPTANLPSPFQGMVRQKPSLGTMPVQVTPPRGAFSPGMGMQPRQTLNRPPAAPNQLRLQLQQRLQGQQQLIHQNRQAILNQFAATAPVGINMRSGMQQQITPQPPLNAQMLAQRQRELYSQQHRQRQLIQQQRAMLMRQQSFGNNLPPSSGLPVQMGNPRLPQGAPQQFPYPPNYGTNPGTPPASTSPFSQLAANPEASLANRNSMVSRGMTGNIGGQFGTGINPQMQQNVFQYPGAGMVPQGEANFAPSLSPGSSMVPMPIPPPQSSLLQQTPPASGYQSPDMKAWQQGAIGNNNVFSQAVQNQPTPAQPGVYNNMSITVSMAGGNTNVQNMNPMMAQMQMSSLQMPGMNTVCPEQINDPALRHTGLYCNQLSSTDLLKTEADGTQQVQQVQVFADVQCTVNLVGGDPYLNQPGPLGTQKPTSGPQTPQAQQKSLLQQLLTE
Sequence of Peroxisome proliferator-activated receptor gamma/Nuclear receptor coactivator 3 (P37231 whole entry): as the sequence (P37231 whole entry) above
Sequence of Peroxisome proliferator-activated receptor gamma/Nuclear receptor coactivator 3 (Q9Y6Q9 whole entry, further chain): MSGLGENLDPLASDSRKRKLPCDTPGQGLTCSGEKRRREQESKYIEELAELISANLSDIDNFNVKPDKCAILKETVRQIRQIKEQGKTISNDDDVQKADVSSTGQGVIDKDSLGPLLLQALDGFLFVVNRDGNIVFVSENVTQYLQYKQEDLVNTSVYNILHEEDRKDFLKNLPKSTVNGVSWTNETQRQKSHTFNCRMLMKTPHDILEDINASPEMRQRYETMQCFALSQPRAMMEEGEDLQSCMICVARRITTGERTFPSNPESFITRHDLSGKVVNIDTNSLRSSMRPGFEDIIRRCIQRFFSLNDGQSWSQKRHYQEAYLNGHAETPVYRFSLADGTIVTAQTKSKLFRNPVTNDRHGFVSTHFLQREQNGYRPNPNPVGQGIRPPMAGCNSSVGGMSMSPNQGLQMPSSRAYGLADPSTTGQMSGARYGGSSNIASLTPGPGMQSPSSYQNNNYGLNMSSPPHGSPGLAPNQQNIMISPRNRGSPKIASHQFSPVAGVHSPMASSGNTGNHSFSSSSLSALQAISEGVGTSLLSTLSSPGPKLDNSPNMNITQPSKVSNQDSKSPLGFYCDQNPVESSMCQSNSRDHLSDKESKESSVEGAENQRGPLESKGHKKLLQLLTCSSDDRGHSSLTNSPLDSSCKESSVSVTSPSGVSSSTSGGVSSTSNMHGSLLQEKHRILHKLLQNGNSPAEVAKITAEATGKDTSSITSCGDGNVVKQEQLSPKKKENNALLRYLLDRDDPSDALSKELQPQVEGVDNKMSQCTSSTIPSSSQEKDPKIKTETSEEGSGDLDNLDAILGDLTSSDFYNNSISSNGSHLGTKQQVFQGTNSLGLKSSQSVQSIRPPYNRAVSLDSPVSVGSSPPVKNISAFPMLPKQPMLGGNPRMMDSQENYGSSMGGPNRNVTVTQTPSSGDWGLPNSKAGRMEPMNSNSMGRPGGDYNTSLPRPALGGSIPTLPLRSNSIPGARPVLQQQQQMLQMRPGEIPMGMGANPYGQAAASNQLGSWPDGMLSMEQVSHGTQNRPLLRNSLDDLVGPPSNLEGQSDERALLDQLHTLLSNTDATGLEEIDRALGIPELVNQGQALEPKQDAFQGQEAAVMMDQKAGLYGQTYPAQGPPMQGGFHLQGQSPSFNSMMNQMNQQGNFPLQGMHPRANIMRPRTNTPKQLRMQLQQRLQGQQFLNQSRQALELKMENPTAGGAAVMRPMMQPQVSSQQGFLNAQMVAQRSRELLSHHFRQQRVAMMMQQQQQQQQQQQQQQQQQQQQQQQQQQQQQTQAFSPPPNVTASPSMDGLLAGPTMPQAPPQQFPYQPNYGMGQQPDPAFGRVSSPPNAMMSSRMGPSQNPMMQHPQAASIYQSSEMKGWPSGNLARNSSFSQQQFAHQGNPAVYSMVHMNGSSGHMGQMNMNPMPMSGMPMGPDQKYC
T2 sequence (P11940 whole entry, the tested form may be a part): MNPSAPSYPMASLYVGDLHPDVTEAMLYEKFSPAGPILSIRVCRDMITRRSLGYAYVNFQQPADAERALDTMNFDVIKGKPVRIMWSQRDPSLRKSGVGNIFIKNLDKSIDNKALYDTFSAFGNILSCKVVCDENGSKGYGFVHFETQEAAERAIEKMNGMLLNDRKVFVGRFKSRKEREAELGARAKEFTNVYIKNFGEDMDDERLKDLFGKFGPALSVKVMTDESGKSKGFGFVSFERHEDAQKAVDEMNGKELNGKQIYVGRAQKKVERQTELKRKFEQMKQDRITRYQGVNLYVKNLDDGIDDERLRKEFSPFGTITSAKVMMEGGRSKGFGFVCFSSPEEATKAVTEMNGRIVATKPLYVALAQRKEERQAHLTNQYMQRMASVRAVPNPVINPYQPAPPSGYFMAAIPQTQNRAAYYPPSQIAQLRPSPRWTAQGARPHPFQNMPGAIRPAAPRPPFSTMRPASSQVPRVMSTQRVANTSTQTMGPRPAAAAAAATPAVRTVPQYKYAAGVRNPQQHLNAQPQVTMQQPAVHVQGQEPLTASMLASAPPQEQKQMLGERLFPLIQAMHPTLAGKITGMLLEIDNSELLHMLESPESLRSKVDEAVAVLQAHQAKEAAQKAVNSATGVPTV
Sequence of Induced myeloid leukemia cell differentiation protein Mcl-1 (Q07820 whole entry): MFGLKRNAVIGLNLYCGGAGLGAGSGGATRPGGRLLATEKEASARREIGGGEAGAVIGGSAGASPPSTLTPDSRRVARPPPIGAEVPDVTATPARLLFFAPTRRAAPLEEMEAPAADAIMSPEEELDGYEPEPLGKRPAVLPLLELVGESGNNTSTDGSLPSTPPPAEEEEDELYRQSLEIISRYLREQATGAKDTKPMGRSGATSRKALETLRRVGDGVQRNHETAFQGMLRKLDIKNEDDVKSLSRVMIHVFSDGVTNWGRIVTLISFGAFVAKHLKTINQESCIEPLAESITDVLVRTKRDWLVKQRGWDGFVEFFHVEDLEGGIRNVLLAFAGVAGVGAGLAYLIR

Cc1[nH]c2ccc(C(=O)Nc3ccncc3)cc2c1C
EC50 [1]: > 50 µM (active)

Cn1c(=O)c2c(ncn2CCNC2=NCCCCC2)n(C)c1=O
EC50 [2]: > 79.4 µM (not active)
EC50 [3]: > 79.4 µM (not active)
EC50 [4]: > 79.4 µM (not active)

Cc1cccc(NC(=O)Cn2cc(C(=O)C3CC3)c3ccccc32)c1C
AC50 [5]: 66 µM (active)
AC50 [6]: 2.39 µM (active)
AC50 [7]: 3.05 µM (active)

O=C(COc1ccc2ccccc2c1)NNC(=O)Cc1ccccc1
EC50 [2]: 6.57 µM (active)
EC50 [3]: 5.17 µM (active)
EC50 [4]: 6.07 µM (active)

Cc1ccc(CSc2nc3c(cc2C#N)CCC3)cc1
EC50 [2]: 47.6 µM (not active)
EC50 [3]: 28.5 µM (not active)
EC50 [4]: 42.7 µM (not active)

CC(C)C(=O)N1C2CCC1CC(O)(c1ccc(F)cc1)C2 (stereo not given)
AC50 [8]: 20 µM (inconclusive)
EC50 [2]: > 79.4 µM (not active)
EC50 [3]: > 79.4 µM (not active)
AC50 [9]: 22.4 µM (inconclusive)
AC50 [10]: 17.8 µM (inconclusive)
EC50 [4]: > 79.4 µM (not active)

O=C1c2ccccc2NC(c2cccc([N+](=O)[O-])c2)N1CCc1ccccc1 (stereo not given)
EC50 [1]: > 50 µM (active)

O=C(Nc1ccc(F)cc1)C1CCC(CNc2c(N3CCCCC3)c(=O)c2=O)CC1 (stereo not given)
EC50 [1]: > 50 µM (active)

COC(=O)c1cc(NC(S)=Nc2cc(Cl)cc(Cl)c2)cc(C(=O)OC)c1
IC50 [11]: > 66 µM (inactive)
IC50 [12]: > 66 µM (inactive)

Cc1cc(NC(=O)c2ccc3[nH]c(C)c(C)c3c2)ccn1
EC50 [1]: > 50 µM (active)

Cc1nc2scc(C)n2c(=O)c1S(=O)(=O)N1CCN(c2cccc(C(F)(F)F)c2)CC1
EC50 [1]: > 50 µM (active)
EC50 [13]: > 195 µM (not active)

CCc1nc2ccc(C(=O)Nc3nnc(C)s3)cc2nc1CC
EC50 [2]: > 79.4 µM (not active)
EC50 [3]: > 79.4 µM (not active)
EC50 [4]: > 79.4 µM (not active)

O=C(Nc1ccc(S(=O)(=O)N2CCCC2)cc1)c1cccnc1
EC50 [1]: > 50 µM (active)

N#CC(C(=O)NCc1ccccc1)c1nc2ccccc2nc1N1CCCC1 (stereo not given)
EC50 [14]: > 300 µM (inconclusive)
EC50 [15]: 4.64 µM (active)
EC50 [16]: > 99 µM (inactive)
EC50 [17]: > 300 µM (inconclusive)

CCCN(CC(=O)Nc1ccccc1C)C(=O)COC(=O)CSc1ccc([N+](=O)[O-])cc1
IC50 [11]: > 66 µM (inactive)
IC50 [12]: > 66 µM (inactive)

Cn1cccc1-c1nc2cc(NC(=O)c3ccccc3)ccc2[nH]1
EC50 [2]: > 79.4 µM (not active)
EC50 [3]: > 79.4 µM (not active)
EC50 [4]: > 79.4 µM (not active)

CCCCCc1nc2c(c(=O)c3ccccc3n2C)c(=O)n1C1CCCCCC1
AC50 [18]: 7.76 µM (active)
AC50 [19]: 3.56 µM (active)
CC50 [20]: 10.4 µM (active)
AC50 [5]: 42.3 µM (active)
AC50 [6]: 8.21 µM (active)
EC50 [21]: 6.38 µM (active)
EC50 [22]: 7.59 µM (active)
AC50 [7]: 5.56 µM (active)

O=C(CN1C(=O)/C(=C2\SC(=S)N(C3CCS(=O)(=O)C3)C2=O)c2ccccc21)Nc1ccc(F)cc1 (stereo not given)
IC50 [23]: 3.55 µM (active)

Cc1ccc(C23CC4CC(CC(CN)(C4)C2)C3)cc1
IC50 [24]: 50 µM (inactive)

c1cncc(CNC2CCCC2)c1
EC50 [2]: > 79.4 µM (not active)
EC50 [3]: > 79.4 µM (not active)
EC50 [4]: > 79.4 µM (not active)

C=CCN1C(=O)/C(=C2/Sc3ccccc3N2CC)SC1=S
EC50 [14]: 16.1 µM (active)
EC50 [15]: > 99 µM (inactive)
EC50 [16]: 56.1 µM (inactive)
EC50 [17]: 9.69 µM (active)

CCCCOC(=O)Nc1nnc(SCCOc2ccc(C)cc2)s1
IC50 [24]: > 64 µM (inactive)

Cc1ccc(NC(=O)c2ccccc2)s1
EC50 [1]: > 50 µM (active)

Cc1cc(C(F)F)n2nc(C(=O)Nc3sc4c(c3C(N)=O)CCC4)nc2n1
IC50 [23]: 40 µM (active)

CC12CC3(C)CC(C)(C1)CC(C(=O)NC(=S)N1CCCC1)(C2)C3
IC50 [24]: 50 µM (inactive)

From ChEMBL document CHEMBL1201862, “PubChem BioAssay data set” (2004)
